{"source": "ChEMBL document CHEMBL1151754", "about": "“Structural and mechanistic studies of mofegiline inhibition of recombinant human monoamine oxidase B” (J Med Chem, 2008)", "key": {"[1]": {"molecular_target": "T1, Amine oxidase [flavin-containing] A (Homo sapiens, UniProt P21397)", "T1 sequence (P21397 whole entry)": "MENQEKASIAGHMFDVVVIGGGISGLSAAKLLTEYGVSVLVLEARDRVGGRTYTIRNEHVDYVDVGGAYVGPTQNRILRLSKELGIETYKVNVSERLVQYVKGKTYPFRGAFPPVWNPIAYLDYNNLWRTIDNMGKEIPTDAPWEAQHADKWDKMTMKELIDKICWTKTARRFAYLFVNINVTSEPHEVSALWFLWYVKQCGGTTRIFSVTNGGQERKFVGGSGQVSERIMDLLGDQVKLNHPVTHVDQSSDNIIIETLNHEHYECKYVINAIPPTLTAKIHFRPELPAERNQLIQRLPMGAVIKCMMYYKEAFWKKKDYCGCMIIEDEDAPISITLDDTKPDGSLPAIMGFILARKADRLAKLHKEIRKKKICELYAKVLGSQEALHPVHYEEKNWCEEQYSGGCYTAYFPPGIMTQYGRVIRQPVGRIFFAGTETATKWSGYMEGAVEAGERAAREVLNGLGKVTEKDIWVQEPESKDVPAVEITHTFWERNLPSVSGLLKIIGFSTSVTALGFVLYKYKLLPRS", "assay": "Inhibition of human MAOA; call rule not given here"}, "[2]": {"molecular_target": "T2, Amine oxidase [flavin-containing] B (Homo sapiens, UniProt P27338)", "T2 sequence (P27338 whole entry)": "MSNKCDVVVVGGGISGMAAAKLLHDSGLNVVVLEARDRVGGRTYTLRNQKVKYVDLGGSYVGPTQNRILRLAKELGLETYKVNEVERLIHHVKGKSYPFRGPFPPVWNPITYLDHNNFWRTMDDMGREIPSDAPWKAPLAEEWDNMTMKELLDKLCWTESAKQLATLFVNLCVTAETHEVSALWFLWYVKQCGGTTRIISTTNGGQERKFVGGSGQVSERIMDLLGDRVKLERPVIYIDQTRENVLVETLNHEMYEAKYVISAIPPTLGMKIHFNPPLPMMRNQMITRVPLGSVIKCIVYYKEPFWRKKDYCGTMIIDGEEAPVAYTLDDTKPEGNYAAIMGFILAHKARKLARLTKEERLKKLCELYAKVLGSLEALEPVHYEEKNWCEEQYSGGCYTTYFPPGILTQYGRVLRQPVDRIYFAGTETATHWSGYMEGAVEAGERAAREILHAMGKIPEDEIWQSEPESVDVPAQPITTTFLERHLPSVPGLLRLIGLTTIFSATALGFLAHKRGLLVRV", "assay": "Inhibition of reduced human recombinant MAOB expressed in Pichia pastoris assessed as increase in absorbance of reduced enzyme", "set-up": "scale not given: the % may be the effect or the level left"}, "[3]": {"molecular_target": "T2, Amine oxidase [flavin-containing] B", "assay": "Inhibition of human recombinant MAOB expressed in Pichia pastoris by kinetic assay"}, "[4]": {"molecular_target": "T2, Amine oxidase [flavin-containing] B", "assay": "Inhibition of human recombinant MAOB expressed in Pichia pastoris assessed as fluoride ion release by ion-selective electrode experiment"}, "[5]": {"molecular_target": "T2, Amine oxidase [flavin-containing] B", "assay": "Inhibition of human recombinant MAOB expressed in Pichia pastoris assessed as effect on flavin absorbance shift by spectroscopy"}, "[6]": {"molecular_target": "T1, Amine oxidase [flavin-containing] A", "assay": "Inhibition of human recombinant MAOA expressed in Pichia pastoris by kinetic assay"}, "[7]": {"molecular_target": "T2, Amine oxidase [flavin-containing] B", "assay": "Inhibition of human recombinant MAOB expressed in Pichia pastoris assessed as formation of intense negative dichroic band at […] by CD spectroscopy"}, "[8]": {"molecular_target": "T2, Amine oxidase [flavin-containing] B", "assay": "Inhibition of human recombinant MAOB expressed in Pichia pastoris at stoichiometric level of 1 mol/mol of E-FAD"}, "[9]": {"molecular_target": "T1, Amine oxidase [flavin-containing] A", "assay": "Inhibition of oxidized human recombinant MAOA expressed in Pichia pastoris under anaerobic assay condition"}, "[10]": {"molecular_target": "T3, Amine oxidase [flavin-containing] B (Rattus norvegicus, UniProt P19643)", "T3 sequence (P19643 whole entry)": "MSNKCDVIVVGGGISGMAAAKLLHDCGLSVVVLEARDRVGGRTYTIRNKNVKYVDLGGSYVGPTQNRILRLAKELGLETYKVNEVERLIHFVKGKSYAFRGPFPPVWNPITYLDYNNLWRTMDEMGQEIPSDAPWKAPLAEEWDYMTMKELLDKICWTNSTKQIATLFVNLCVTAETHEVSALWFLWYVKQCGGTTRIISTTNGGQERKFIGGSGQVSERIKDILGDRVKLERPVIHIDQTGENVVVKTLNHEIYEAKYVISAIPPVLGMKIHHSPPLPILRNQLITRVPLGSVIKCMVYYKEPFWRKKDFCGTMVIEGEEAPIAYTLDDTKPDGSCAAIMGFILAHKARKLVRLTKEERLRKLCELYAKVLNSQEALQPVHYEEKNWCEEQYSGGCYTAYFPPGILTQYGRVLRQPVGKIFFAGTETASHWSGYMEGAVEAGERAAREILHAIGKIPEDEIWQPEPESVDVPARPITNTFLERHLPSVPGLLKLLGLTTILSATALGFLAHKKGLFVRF", "assay": "Inhibition of rat membrane MAOB"}, "[11]": {"molecular_target": "T2, Amine oxidase [flavin-containing] B", "assay": "Inhibition of oxidized human recombinant MAOB expressed in Pichia pastoris under anaerobic assay condition"}}, "data": [{"smiles": "NCCCCc1ccccc1", "note": "[4-PHENYL-BUTYLAMINE]", "values": [{"measurement": "Ki", "setting": "[1]", "result": 31000, "unit": "nM"}]}, {"smiles": "NC/C(=C/F)CCc1ccc(F)cc1", "note": "[MOFEGILINE]", "values": [{"measurement": "Activity", "setting": "[2]", "result": 50, "unit": "%"}, {"measurement": "Ki", "setting": "[3]", "result": 28, "unit": "nM"}, {"measurement": "Activity", "setting": "[4]", "result": "Active"}, {"measurement": "Activity", "setting": "[5]", "result": "Active"}, {"measurement": "Ki", "setting": "[6]", "result": 1100, "unit": "nM"}, {"measurement": "Activity", "setting": "[7]", "result": "Active"}, {"measurement": "Activity", "setting": "[8]", "result": "Active"}, {"measurement": "Activity", "setting": "[9]", "result": "Not Active"}, {"measurement": "IC50", "setting": "[10]", "result": 3.6, "unit": "nM"}, {"measurement": "Activity", "setting": "[11]", "result": "Active"}]}]}
